In ChEMBL document CHEMBL1201862, “PubChem BioAssay data set” (2004):
Calls of active or inactive are those of the source.

Columns and labels:
[1] = molecular target: T1, Caspase-6 (Homo sapiens, UniProt P55212); assay: human caspase-6 inhibitors, dose response, biochemical, VEID-R110 fluorescence, cherry-pick (AID 720632)
T1 sequence (P55212 whole entry): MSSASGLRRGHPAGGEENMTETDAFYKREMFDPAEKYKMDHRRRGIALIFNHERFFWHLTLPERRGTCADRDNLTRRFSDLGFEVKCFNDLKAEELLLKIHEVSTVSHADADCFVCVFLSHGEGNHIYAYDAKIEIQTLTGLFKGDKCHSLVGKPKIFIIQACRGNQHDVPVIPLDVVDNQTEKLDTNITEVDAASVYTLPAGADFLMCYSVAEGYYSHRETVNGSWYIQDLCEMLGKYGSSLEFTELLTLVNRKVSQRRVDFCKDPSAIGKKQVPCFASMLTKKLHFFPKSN

[2] = molecular target: T2, Coagulation factor XII (Homo sapiens, UniProt P00748); format: functional;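 note: activated factor XIIa alpha cleaving a fluorogenic AMC peptide substrate; inhibitor potency from loss of enzyme activity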
T2 sequence (P00748 whole entry): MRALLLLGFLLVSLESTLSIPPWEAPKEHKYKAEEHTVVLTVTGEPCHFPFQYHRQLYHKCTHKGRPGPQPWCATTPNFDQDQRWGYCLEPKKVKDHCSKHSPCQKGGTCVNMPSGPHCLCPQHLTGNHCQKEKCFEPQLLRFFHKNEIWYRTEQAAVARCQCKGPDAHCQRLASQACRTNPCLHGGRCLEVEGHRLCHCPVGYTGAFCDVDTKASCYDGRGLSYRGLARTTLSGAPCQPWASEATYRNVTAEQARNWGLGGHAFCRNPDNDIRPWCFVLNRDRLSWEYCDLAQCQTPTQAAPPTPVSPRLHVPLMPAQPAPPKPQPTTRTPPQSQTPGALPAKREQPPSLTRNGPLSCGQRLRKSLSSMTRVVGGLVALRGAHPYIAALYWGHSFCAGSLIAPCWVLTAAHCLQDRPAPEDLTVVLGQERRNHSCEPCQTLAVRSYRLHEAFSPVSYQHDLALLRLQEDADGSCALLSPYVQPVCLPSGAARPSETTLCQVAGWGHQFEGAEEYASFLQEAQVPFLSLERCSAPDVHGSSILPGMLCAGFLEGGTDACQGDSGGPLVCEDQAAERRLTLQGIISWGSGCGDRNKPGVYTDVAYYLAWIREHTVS

[3] = molecular target: Peroxisome proliferator-activated receptor gamma/Nuclear receptor coactivator 1 (Homo sapiens, UniProt P37231); format: functional;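 note: agonist potency as compounds enhance coactivator SRC-1 recruitment to PPARgamma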
Peroxisome proliferator-activated receptor gamma/Nuclear receptor coactivator 1, sequence (P37231 whole entry): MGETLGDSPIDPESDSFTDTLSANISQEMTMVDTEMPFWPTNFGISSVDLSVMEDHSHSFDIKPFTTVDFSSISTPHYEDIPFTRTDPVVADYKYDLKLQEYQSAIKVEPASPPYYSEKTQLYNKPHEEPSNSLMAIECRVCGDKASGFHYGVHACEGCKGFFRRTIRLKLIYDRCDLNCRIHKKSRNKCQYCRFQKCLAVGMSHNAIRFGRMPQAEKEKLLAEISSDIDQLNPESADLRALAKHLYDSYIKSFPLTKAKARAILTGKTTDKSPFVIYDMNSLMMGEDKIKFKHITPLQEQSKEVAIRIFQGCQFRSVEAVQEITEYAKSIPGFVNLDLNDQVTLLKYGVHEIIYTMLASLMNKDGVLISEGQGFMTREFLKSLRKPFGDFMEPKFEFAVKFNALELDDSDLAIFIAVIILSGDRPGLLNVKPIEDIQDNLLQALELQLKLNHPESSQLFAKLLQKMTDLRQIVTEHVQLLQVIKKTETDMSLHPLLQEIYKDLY
Peroxisome proliferator-activated receptor gamma/Nuclear receptor coactivator 1, sequence (Q15788 whole entry, further chain): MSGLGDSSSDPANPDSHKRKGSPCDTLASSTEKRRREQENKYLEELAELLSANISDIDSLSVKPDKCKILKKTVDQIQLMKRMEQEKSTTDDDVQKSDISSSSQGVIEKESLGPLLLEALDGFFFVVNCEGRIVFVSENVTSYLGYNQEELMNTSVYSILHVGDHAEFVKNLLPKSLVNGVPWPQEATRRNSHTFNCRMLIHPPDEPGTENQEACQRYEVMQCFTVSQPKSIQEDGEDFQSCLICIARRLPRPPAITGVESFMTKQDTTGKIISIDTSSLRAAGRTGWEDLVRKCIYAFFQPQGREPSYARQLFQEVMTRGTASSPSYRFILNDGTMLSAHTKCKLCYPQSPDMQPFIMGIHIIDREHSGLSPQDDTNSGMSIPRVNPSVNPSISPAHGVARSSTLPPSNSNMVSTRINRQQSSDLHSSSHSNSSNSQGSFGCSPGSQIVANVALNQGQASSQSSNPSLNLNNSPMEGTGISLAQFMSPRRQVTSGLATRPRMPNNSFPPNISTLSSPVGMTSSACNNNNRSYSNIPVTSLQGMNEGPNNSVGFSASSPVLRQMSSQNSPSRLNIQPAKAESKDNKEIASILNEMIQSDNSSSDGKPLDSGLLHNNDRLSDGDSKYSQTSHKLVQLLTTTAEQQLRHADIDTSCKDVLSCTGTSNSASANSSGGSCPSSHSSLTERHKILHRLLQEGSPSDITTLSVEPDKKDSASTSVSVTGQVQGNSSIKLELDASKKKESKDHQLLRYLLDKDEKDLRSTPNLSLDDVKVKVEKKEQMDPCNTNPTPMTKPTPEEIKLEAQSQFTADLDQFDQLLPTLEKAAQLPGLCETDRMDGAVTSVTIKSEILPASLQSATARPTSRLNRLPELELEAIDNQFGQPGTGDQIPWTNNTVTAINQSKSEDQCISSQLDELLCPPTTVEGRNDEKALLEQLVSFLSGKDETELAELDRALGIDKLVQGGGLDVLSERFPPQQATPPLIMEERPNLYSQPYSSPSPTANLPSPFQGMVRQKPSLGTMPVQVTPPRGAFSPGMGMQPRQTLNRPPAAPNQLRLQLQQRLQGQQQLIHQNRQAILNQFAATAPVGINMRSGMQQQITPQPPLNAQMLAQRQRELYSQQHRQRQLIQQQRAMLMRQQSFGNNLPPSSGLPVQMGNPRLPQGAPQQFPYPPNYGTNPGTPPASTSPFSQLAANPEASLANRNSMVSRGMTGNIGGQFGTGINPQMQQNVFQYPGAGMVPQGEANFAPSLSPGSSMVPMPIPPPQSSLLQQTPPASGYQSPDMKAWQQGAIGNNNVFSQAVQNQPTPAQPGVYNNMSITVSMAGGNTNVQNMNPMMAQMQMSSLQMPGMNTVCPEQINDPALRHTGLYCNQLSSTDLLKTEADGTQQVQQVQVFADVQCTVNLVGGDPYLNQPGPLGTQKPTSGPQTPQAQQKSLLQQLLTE

[4] = molecular target: Peroxisome proliferator-activated receptor gamma/Nuclear receptor coactivator 3 (Homo sapiens, UniProt P37231); format: functional;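 note: agonist potency for raising coactivator recruitment to the receptor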
[5] = molecular target: Peroxisome proliferator-activated receptor gamma/Nuclear receptor coactivator 2 (Homo sapiens, UniProt P37231); format: functional;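 note: agonist potency for raising coactivator recruitment to the receptor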
Peroxisome proliferator-activated receptor gamma/Nuclear receptor coactivator 2, sequence (P37231 whole entry): as the sequence (P37231 whole entry) above
Peroxisome proliferator-activated receptor gamma/Nuclear receptor coactivator 2, sequence (Q15596 whole entry, further chain): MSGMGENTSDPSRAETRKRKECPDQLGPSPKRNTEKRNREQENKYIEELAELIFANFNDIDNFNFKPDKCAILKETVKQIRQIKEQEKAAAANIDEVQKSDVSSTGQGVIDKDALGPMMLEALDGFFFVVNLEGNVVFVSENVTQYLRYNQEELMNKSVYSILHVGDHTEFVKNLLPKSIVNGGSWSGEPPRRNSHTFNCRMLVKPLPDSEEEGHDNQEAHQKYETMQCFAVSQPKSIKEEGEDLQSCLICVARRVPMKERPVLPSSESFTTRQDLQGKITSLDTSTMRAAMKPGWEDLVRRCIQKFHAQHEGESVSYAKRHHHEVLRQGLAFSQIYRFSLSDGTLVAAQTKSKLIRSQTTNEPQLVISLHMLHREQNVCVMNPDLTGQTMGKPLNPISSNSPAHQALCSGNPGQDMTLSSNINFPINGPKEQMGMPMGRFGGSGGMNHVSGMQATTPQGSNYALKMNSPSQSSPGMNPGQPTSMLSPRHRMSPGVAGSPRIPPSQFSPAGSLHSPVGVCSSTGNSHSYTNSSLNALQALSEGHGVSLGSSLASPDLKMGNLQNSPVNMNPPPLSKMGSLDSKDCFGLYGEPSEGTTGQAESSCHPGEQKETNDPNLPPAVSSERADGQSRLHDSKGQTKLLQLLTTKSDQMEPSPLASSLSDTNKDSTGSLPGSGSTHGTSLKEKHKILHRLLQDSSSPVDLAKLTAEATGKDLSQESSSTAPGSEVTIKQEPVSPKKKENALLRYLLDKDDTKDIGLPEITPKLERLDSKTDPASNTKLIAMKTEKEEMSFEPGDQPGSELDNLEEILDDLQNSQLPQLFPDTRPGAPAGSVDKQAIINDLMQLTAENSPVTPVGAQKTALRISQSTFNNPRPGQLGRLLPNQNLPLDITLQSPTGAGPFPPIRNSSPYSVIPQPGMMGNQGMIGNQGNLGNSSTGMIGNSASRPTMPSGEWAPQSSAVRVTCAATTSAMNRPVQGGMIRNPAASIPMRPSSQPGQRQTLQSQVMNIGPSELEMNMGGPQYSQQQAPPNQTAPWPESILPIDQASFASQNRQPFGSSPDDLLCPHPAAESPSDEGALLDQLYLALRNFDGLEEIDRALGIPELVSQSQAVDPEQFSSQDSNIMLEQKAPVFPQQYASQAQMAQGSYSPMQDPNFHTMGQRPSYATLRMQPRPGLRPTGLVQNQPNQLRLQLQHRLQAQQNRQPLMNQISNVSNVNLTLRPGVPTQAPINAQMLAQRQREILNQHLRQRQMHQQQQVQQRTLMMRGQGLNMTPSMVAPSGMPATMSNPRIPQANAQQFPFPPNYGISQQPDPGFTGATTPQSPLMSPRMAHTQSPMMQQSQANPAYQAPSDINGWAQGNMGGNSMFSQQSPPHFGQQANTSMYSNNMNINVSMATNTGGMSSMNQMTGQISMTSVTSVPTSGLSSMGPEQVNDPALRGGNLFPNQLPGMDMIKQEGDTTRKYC

[6] = molecular target: Paired box protein Pax-8 (Homo sapiens, UniProt Q06710); assay: inhibitors of PAX8-driven TPO luciferase reporter, dose response, RMG-I cells, cherry-pick (AID 687027); format: functional, cell-based;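 note: luciferase reporter driven by Pax8 target thyroperoxidase promoter measured by SteadyGlo luminescence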
Paired box protein Pax-8, sequence (Q06710 whole entry): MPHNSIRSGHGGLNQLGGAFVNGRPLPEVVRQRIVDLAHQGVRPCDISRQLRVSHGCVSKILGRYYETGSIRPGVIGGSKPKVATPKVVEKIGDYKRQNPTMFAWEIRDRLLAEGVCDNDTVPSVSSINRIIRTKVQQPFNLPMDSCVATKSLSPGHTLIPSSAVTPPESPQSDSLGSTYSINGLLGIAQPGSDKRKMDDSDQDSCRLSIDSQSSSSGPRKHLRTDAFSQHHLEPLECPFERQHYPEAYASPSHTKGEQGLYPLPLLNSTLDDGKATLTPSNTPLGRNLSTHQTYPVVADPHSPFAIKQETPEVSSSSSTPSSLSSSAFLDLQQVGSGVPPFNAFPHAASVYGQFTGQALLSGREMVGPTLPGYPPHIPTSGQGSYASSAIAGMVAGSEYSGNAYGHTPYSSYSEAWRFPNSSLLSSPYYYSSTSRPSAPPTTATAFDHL

[7] = cytotoxicity in OVCAR8 ovarian cancer cells, dose response, PAX8 project, cell-based, plate reader, dry powder samples (AID 743197); format: functional; conditions: OVCAR-8
[8] = NIH:OVCAR-3 ovarian cancer cell cytotoxicity, dose response, PAX8 inhibitor project, plate reader, dry powder samples (AID 743044); format: functional, cell-based
[9] = tested on: HEK293; assay: cells; conditions: Homo sapiens
[10] = tested on: HEK293; assay: cells; conditions: Homo sapiens; remark: listed apart in the source
[11] = cytotoxicity in HEK-293T cells, dose response, cytotoxicity control for TCR NF-kB inhibitor project, luminescence, T-cell screen hits (AID 489026); format: functional, cell-based;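 note: cells exposed to compound about 14 hours before the viability readout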
[12] = Luminescence Cell-Based Dose Response HTS to Identify Inhibitors of 5'UTR Stem-Loop Driven Prion Protein mRNA Translation in H4 Neuroglioblastoma Cells. [Related pubchem assays: 1827 (Project Summary), 1813 (Primary HTS)]; format: functional
[13] = tested on: INS1; assay: beta cell apoptosis inhibitors, cytokine rescue, dose response, luminescence, retest (AID 449756); format: functional, cell-based; conditions: Rattus norvegicus;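 note: cell death triggered by IL-1 beta plus TNF-alpha plus IFN-gamma mixture; protective hits raise ATP signal compared with cytokine alone wells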
[14] = inhibitors of firefly luciferase expression or activity, dose response, H4 neuroglioma cells, luminescence (AID 1990); format: functional, cell-based
[15] = molecular target: T3, COUP transcription factor 2 (Homo sapiens, UniProt P24468); assay: Luminescence-based cell-based high throughput dose response assay to identify inhibitors of COUP-TFII (NR2F2).; format: functional;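 note: HEK293 cells transiently cotransfected with COUP-TFII expression vector and reporter; luciferase reporter luminescence driven by COUP-TFII from the pX2-168 reporter plasmid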
T3 sequence (P24468 whole entry): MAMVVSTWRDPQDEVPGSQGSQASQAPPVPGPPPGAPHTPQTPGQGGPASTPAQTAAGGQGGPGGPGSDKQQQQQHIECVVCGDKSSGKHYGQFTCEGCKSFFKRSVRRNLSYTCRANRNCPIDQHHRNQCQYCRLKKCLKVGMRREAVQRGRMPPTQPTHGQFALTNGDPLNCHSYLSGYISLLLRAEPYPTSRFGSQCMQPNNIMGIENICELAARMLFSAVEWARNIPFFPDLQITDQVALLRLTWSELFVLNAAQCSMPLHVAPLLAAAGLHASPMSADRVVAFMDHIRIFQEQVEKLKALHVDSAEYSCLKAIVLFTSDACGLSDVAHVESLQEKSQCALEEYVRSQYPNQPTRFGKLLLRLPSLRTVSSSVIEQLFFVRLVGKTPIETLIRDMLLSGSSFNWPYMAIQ

[16] = inhibitors of intracellular T. cruzi replication, confirmation, NIH3T3 host cells, beta-gal luminescence (AID 2044); format: functional, cell-based;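 note: intracellular parasites grown in NIH/3T3 mouse fibroblasts as host cells; luminescent beta-galactosidase reporter signal from transgenic T. cruzi replicating inside host cells; inhibitors lower the luminescence signal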
[17] = cytotoxicity toward NIH3T3 fibroblasts, dose response, counter-screen, cell-based, ATP luminescence, mouse fibroblasts (AID 2010); format: functional;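 note: cells exposed to compound for about 90 hours before reading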
[18] = inhibitors of SNCA 5'UTR-driven reporter translation, confirmation, H4 neuroglioma cells, luminescence (AID 1988); format: functional, cell-based
[19] = molecular target: Voltage-gated N-type calcium channel alpha-1B subunit/Amyloid beta A4 precursor protein-binding family A member 1 (Homo sapiens, UniProt Q00975+Q02410); assay: disruptors of Mint-PDZ/N-type channel peptide interaction – biochemical, HTRF, set 2, SAR follow-up (AID 434980); format: functional
[20] = molecular target: DNA dC->dU-editing enzyme APOBEC-3G (Homo sapiens, UniProt Q9HC16); assay: Dose Response confirmation of small molecule APOBEC3G DNA Deaminase Inhibitors via a fluorescence-based single-stranded DNA deaminase assay. [Related pubchem assays (depositor defined):AID493012, AID493028]; format: functional
DNA dC->dU-editing enzyme APOBEC-3G, sequence (Q9HC16 whole entry): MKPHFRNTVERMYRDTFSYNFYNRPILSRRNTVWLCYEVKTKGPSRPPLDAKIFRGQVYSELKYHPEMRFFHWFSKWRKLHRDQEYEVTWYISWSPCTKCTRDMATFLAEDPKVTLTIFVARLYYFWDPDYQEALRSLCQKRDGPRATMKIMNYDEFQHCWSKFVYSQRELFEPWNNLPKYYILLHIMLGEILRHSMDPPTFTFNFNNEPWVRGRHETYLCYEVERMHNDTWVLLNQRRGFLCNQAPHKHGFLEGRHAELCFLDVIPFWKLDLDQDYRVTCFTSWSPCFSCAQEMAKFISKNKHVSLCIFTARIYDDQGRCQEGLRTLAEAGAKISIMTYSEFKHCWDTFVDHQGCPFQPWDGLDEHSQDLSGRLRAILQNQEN

[21] = molecular target: Estrogen receptor beta (Homo sapiens, UniProt Q92731); assay: ERβ–SRC-3 coactivator interaction inhibitors, confirmation, orthogonal assay, biochemical, ELISA, streptavidin-HRP readout (AID 1060)
[22] = molecular target: Voltage-dependent T-type calcium channel subunit alpha-1H (Homo sapiens, UniProt O95180); format: functional;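 note: channel activity triggered by adding a high calcium stimulation buffer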
[23] = cells; format: functional, cell-based
[24] = cells; format: functional, cell-based; remark: listed apart in the source

For `O=C(O)c1cc([N+](=O)[O-])cc2c1C=Cc1ccccc1O2`, the AC50 [1] was 37.5 µM (active).
In the case of `CCC(C)NC(=O)CSc1ncnc2sccc12` (centres undefined), the IC50 [2] is reported as > 50 µM (inactive).
In the case of `CCOC(=O)C1=NN(c2cccc(Cl)c2)C2=NC(C)=C(C(=O)OC)C(c3cccs3)N12` (centres undefined), the EC50 [3] is reported as > 79.4 µM (not active), the EC50 [4] is reported as > 79.4 µM (not active) and the EC50 [5] is reported as > 79.4 µM (not active).
For `CCC1=NN(C(=O)Cc2ccc([N+](=O)[O-])cc2)C(O)(C(F)(F)F)C1` (centres undefined), the IC50 [2] was > 50 µM (inactive).
With `Cc1noc(C)c1S(=O)(=O)Nc1ccc2c(c1)C(=O)N([C@H](C)CO)C[C@H](C)[C@@H](CN(C)C(=O)Nc1ccc(C(F)(F)F)cc1)OCCCC[C@H](C)O2` the AC50 [6] was 9.4 µM (active), the AC50 [7] was > 70 µM (inactive) and the AC50 [8] was < 0.26 µM (active).
For `CCO/C(O)=C1\C(C)=NC(=S)N(C(C)=O)C1c1ccc(OC)c(OC)c1` (centres undefined), the IC50 [2] was > 50 µM (inactive).
With `CCOc1ccc(N(CC(=O)Nc2cc(C)ccc2C)S(=O)(=O)c2c(C)nc(O)nc2O)cc1` the IC50 [2] was > 50 µM (inactive).
In the case of `COc1ccc(C2C=C(C34CC5CC(CC(C5)C3)C4)N=C(S)N2)cc1OC` (centres undefined), the EC50 [9] is reported as > 59.6 µM (inactive) and the EC50 [10] is reported as > 59.6 µM (inactive).
For `N=c1ccn(CC(=O)c2ccc(-c3ccccc3)cc2)cc1`, the IC50 [11] was > 80 µM (inactive), the EC50 [12] was 12.3 µM (active) and the AC50 [13] was 1.46 µM (active). The EC50 [14] was 9.17 µM (active), the IC50 [15] was 9.15 µM (active) and the EC50 [16] was 2.01 µM (active). The EC50 [17] was > 60 µM (not active) and the EC50 [18] was 7.33 µM (active).
With `CC(C)(C)c1ccc(CNC(=O)c2cc(-c3ccco3)nc3ccccc23)cc1` the IC50 [19] was 39.5 µM (active).
In the case of `Nc1ccccc1SC(C[N+](=O)[O-])c1ccccc1` (centres undefined), the IC50 [20] is reported as 28.2 µM (active).
In the case of `N#Cc1cc2c(nc1SCc1ccccc1)CCC2`, the IC50 [21] is reported as 0.0254 µM (not active), the EC50 [3] is reported as 41 µM (not active) and the EC50 [4] is reported as 56.6 µM (not active). The EC50 [5] was 45.2 µM (not active).
With `O=C(N[C@@H]1C[C@H]1c1ccccc1)c1cc(-c2ccco2)nc2ccccc12` the IC50 [19] was 46.4 µM (active).
In the case of `O=C(CSc1nnc(CNC(=O)c2cccs2)o1)Nc1cccc(C(F)(F)F)c1`, the EC50 [22] is reported as 4.46 µM (active).
For `C[C@@H]1CCCCO[C@@H](CN(C)C(=O)Nc2ccc(C(F)(F)F)cc2)[C@H](C)CN([C@H](C)CO)C(=O)c2cc(NS(=O)(=O)c3ccc(Cl)cc3)ccc2O1`, the AC50 [6] was 3.25 µM (active), the AC50 [7] was 32 µM (active) and the AC50 [8] was 27.8 µM (active).
With `COc1cc(/C=N/n2c(S)nnc2-c2ccccc2)cc(OC)c1O` the IC50 [20] was > 100 µM (inactive).
In the case of `COc1cc(C2CC(=O)N3CN(Cc4ccccc4)CSC3=C2C#N)ccc1OCc1ccccc1` (centres undefined), the EC50 [23] is reported as 40.3 µM (active), the EC50 [3] is reported as > 79.4 µM (not active) and the EC50 [4] is reported as > 79.4 µM (not active). For the same molecule, the EC50 [24] was > 350 µM (not active) and the EC50 [5] was > 79.4 µM (not active).
In the case of `CC(C)(C)n1ncc2c(=O)n(CC(=O)Nc3ccc(Cl)cc3)cnc21`, the EC50 [22] is reported as 4.08 µM (active).
